Square brackets hold non-standard residues; d marks the D form. Peptide text beside a SMILES is read from it. * marks the point of attachment. PEG4 = NCCOCCOCCOCCOCCC(=O)O; X1 = O=C(Cn1cc(CCCF)nn1)*
Legend:
Assay type in all cases: cell-based, human
H2122 = test: Cold [19F] standard compound uptake in cells treated with apoptotic inducer, LC/MS (H2122); details: cold standard compound 10 μM, 2 h, 1 mM 5FU for 2 days, % uptake normalized per mg protein extract
Procedure: (§1) When cells grown in 6-well plates reached 80% confluence, the growth medium was replaced with 2 ml of fresh medium containing 1 mM of 5FU. After two days of apoptotic induction, the standard compound was added into the cultures (control and 5FU treated) at a final concentration of 10 μM. The cells were cultured in the incubator for 2 hours for compound uptake. Then, (in the case of experiments involving the use of caspase-3 inhibitors as blockers, the inhibitor was added to the cells 1 hour early before the addition of standard compound). 100 μl of cell culture medium for each sample was collected, and the cells were harvested by centrifugation. Cell pellets were washed twice with 1×PBS, and lysed in 100 μl of lysis buffer. Both cell lysate and medium were boiled for 5 minutes to denature proteins, cooled down on ice, then 100 μl of chloroform/methanol (50/50 ratio) were added. After vortexing and extraction, the samples were centrifuged in Eppendorf tubes in a micro centrifuge at 13000 rpm for 15 minutes at 4 C. 50 μl of the supernatant was transferred to an HPLC vial. The amounts of compound (or product of caspase-3 cleavage) inside the cells and in the medium were measured by LC/MS. The % uptake=total amount of cell uptake/total amount of compound X 100%. The % uptake was normalized by the amount of cellular protein extract (mg): % Uptake/mg protein extracts.

A498 [1] = test: Cold [19F] standard compound uptake in cells treated with apoptotic inducer, LC/MS (A498); details: cold standard compound 10 μM, 2 h, 1 mM 5FU for 2 days, % uptake normalized per mg protein extract
Procedure: as §1

U87 [2] = test: Cold [19F] standard compound uptake in cells treated with apoptotic inducer, LC/MS (U87); details: cold standard compound 10 μM, 2 h, 1 mM 5FU for 2 days, % uptake normalized per mg protein extract
Procedure: as §1

HT29 [3] = test: Cold [19F] standard compound uptake in cells treated with apoptotic inducer, LC/MS (HT29); details: cold standard compound 10 μM, 2 h, 1 mM 5FU for 2 days, % uptake normalized per mg protein extract
Procedure: as §1

A498 [4] = test: [18F]-tracer compound uptake in cancer cell lines treated with apoptotic inducer 5FU (A498); details: [18F]-tracer 10 μCi/well, 2 h incubation, 1 mM 5FU for 2 days; % uptake normalized per mg protein extract
Procedure: (§2) Cells grown overnight and having reached about 80% confluence in 6-well plates were exposed to 1 mM of apoptotic inducer 5FU for 2 days in a cell culture incubator. The [18F]-labeled tracer was added into each well (triplicates for control and 5FU treated) at 10 μCi/well. (in case of experiments involving the use of caspase-3 inhibitors as blockers, the inhibitor was added to the cells 1 hour before the addition of the [18F]-tracer). The cells were then incubated for two hours. Cells were collected by scrape and centrifugation. Cell pellets were washed twice with 1λ PBS. The amount of tracer inside the cells and in the medium was measured by y-counter. The % Uptake=total CPM inside cells/total tracer CPM×100%. The % Uptake was normalized by the amount of cellular protein extract (mg): % uptake/mg protein extracts.

U87 [5] = test: [18F]-tracer compound uptake in cancer cell lines treated with apoptotic inducer 5FU (U87); details: [18F]-tracer 10 μCi/well, 2 h incubation, 1 mM 5FU for 2 days; % uptake normalized per mg protein extract
Procedure: as §2

HT29 [6] = test: [18F]-tracer compound uptake in cancer cell lines treated with apoptotic inducer 5FU (HT29); details: [18F]-tracer 10 μCi/well, 2 h incubation, 1 mM 5FU for 2 days; % uptake normalized per mg protein extract
Procedure: as §2

SMILES	percent uptake H2122 (H2122) [%]	percent uptake A498 (A498 [1]) [%]	percent uptake U87 (U87 [2]) [%]	percent uptake HT29 (HT29 [3]) [%]	percent uptake A498 (A498 [4]) [%]	percent uptake U87 (U87 [5]) [%]	percent uptake HT29 (HT29 [6]) [%]
CC(C)[C@H](NC(=O)[C@H](CCC(=O)O)NC(=O)[C@H](CC(=O)O)NC(=O)Cn1cc(CCCF)nn1)C(=O)N[C@@H](CC(=O)O)C(=O)N[C@@H](C)C(=O)NCCOCCOCCOCCOCCC(=O)O [Compound 21] (X1-DEVDA[PEG4]-OH)	1.3	2.1	2.0	1.1	–	–	–
CC(C)[C@H](NC(=O)[C@H](CCC(=O)O)NC(=O)[C@H](CC(=O)O)NC(=O)C1OC(CNC(=O)Cn2cc(CCC[18F])nn2)C(O)C(O)C1O)C(=O)N[C@@H](CC(=O)O)C(=O)NCC(N)=O (stereo partly drawn) [^18F-49]	–	–	–	–	1.5	–	–
CC(C)[C@H](NC(=O)[C@H](CCC(=O)O)NC(=O)[C@H](CC(=O)O)NC(=O)Cn1cc(CCC[18F])nn1)C(=O)N[C@@H](CC(=O)O)C(=O)N[C@@H](C)C(=O)NCCOCCOCCOCCOCCC(=O)O [^18F-21]	–	–	–	–	1.8	2.1	2.1
CC(C)[C@H](NC(=O)[C@H](CCC(=O)O)NC(=O)[C@H](CC(=O)O)NC(=O)C1OC(CNC(=O)Cn2cc(CCC[18F])nn2)C(O)C(O)C1O)C(=O)N[C@@H](CC(=O)O)C(=O)N[C@@H](C)C(=O)NCCOCCOCCOCCOCCC(=O)O (stereo partly drawn) [^18F-56]	–	–	–	–	2.1	2.1	1.9
CC(C)[C@H](NC(=O)[C@H](CCC(=O)O)NC(=O)[C@H](CC(=O)O)NC(=O)Cn1cc(CCCF)nn1)C(=O)N[C@@H](CC(=O)O)C(=O)NCC(=O)N[C@@H](CCCCN)C(=O)N[C@@H](CCCCN)C(=O)N[C@@H](CCCCN)C(=O)N[C@@H](CCCCN)C(N)=O [Compound 27] (X1-DEVDGKKKK-NH2)	2.0	4.5	2.5	1.7	–	–	–
